# Source: patent publication US4080467A, “Pharmaceutical compositions comprising 1,3-dithiolan-2-ylidene malonate derivatives” (Nihon Nohyaku Co., Ltd., priority 1976, dated 1978)
# How the values were obtained:
# [1] = system: fatty liver (carbon tetrachloride); assay: Therapeutic effect on fatty liver (carbon tetrachloride model); type: in vivo, male rat (35 week-old, SD strain); conditions: for Degree of fatty liver (histopathological examination): 10 days, one symbol per animal
# Procedure: Carbon tetrachloride also induces fatty liver, but the picture of disease differs from the case of ethionine-induced fatty liver. Carbon tetrachloride is generally considered to damage microsome and thereby to inhibit protein synthesis and induce fatty liver.
# Carbon tetrachloride was subscutaneously administered to 35 week-old male rat (SD strain) for 4 days at the dose of 1 ml/kg. The treated animals were left for 3 days after the last administration to maximize the manifestation of fatty liver.
# Administration of the compounds of this invention was commenced on the fourth day after the administration of carbon tetrachloride was completed. It was orally given everyday for 10 days at the dose of 50 or 250 mg/kg. On the 11th day, the animals were sacrificed. The therapeutic effect was evaluated by determining the content of lipid in the liver (triglyceride and total lipid) and examining the histopathological changes. Triglyceride and total lipid were determined colorimetrically by chromotropic acid method and Bragdon's oxidation method, respectively.
# Indices for the histopathological change is as follows.
# [2] = system: acute liver damage associated with periportal necrosis (allyl alcohol); assay: Protective effect on acute liver damage associated with periportal necrosis (allyl alcohol model), BSP test; type: in vivo, male mouse (4 week-old dd-strain); conditions: 100 mg/kg oral 6 h before allyl alcohol 0.075 ml/kg; 24 h after
# Procedure: The compound of this invention or anethol trithion was orally administered to the male mouse (4 week-old dd-strain) at the dose of 100 mg/kg. Six hours after it, allyl alcohol was orally administered at the dose of 0.075 ml/kg. Twenty four hours after it, the animals were sacrificed to collect blood samples. The residual quantity of BSP was measured by BSP test, from which the protective effect of the compound of this invention was evaluated.
# [3] = Acute oral toxicity to male mice (LD50); conditions: mouse, in vivo
# [4] = system: cirrhosis (carbon tetrachloride); assay: Therapeutic effect on cirrhosis (carbon tetrachloride); type: in vivo, male rat (4 week-old SD-strain); conditions: for Degree of cirrhosis (histopathological examination): 2000 ppm diet, one symbol per animal; for p-GOT activity / p-GPT activity: diet containing 2000 ppm
# Procedure: The therapeutic effect of the compound of this invention on cirrhosis, which had been caused by carbon tetrachloride administration, was examined.
# A 10% solution of carbon tetrachloride in olive oil was administered to the male rat (4 week-old SD-strain) intraperitoneally at the dose of 0.5 ml carbon tetrachloride/kg twice a week for a period of 10 weeks, to induce cirrhosis. Four days after the final administration of carbon tetrachloride, the formation of pseudo-lobulus was confirmed. Then the diseased animals were divided into two groups. Therapeutic group was submitted a diet containing 2000 ppm of Compound 4, while the positive control group was submitted a normal diet. Control group, to which olive oil alone had been administered, was submitted a normal diet.
# At 1, 2, 4 and 8 weeks after beginning of Compound 4 feeding, 5 animals from each group were sacrificed, and the therapeutic effect on cirrhosis was evaluated by examining plasma transaminase activity (p-GPT and p-GOT, Reitman-Frankel method) and observing histopathological changes.
# Degree of cirrhosis in the histopathological examination was graded as follows: […]
# [5] = Effect on glucose metabolism (blood sugar after glucose load); type: in vivo, mice; conditions: for Blood Sugar: 250 mg/kg oral 6 h before glucose 4.0 g/kg
# Procedure: The test compounds dissolved in olive oil and administered orally at the dose of 250 mg/kg to the mice. After 6 hours, 4.0 g/kg of glucose was orally administered. The same amount of glucose was given to the control animals. 0.02 ml of blood was taken from caudal vein of the mice at 30, 60, 90 and 120 min. after glucose administration. Blood sugar was measured by the procedure of Somogyi-Nelson. Number of animals used was 5 to 6 mice for each treatment.
# [6] = Effect on concentration of ethyl alcohol in the blood; type: in vivo, mice; conditions: 250 mg/kg oral 6 h before ethyl alcohol 1,000 mg/kg
# Procedure: The test compounds are dissolved or suspended in olive oil and administered orally at the dose of 250 mg/kg to the mice. After 6 hours, 1,000 mg/kg of ethyl alcohol was given orally. Blood was taken in a capillary from caudal vein at the time indicated in the results. The plasma was obtained by centrifugation. The concentration of ethyl alcohol in the plasma was measured by FID type gas liquid chromatography. Five mice were used for each group.
# [7] = system: bile flow and biliary salt; assay: Cholagogic action: bile flow and excretion of biliary salt; type: in vivo, male rat (4 week-aged, SD-JCL strain); conditions: 200 mg/kg oral; for bile flow / excretion of biliary salt: before treatment = 100
# [8] = 50 mg/kg oral everyday for 10 days
# [9] = 250 mg/kg oral everyday for 10 days
structure (smiles),measurement,setting,value
"CC(C)OC(=O)C(C(=O)OC(C)C)=C1SCCS1 [Compound 4, Diisopropyl 1,3-dithiolan-2-yliden malonate]",Total lipid,[1]; [8],107.6 ± 12.3 mg/g-liver
same,Triglyceride,[1]; [8],42.3 ± 6.3 mg/g-liver
same,Degree of fatty liver (histopathological examination),[1]; 50 mg/kg oral,± ± and ± ± ± + ±
same,Total lipid,[1]; [9],72.3 ± 9.6 mg/g-liver
same,Triglyceride,[1]; [9],23.6 ± 3.8 mg/g-liver
same,Degree of fatty liver (histopathological examination),[1]; 250 mg/kg oral,- - ± ± - ±
same,Index of hepatotoxicity: BSP (residual quantity of BSP),[2],16±2.3
same,LD50,[3],1350 mg/kg
same,Degree of cirrhosis (histopathological examination),[4]; 1 week,+ +++ + ++ +++
same,Degree of cirrhosis (histopathological examination),[4]; 2 weeks,++ ±
same,Degree of cirrhosis (histopathological examination),[4]; 8 weeks,+ ± and +++ ±
same,p-GOT activity,[4]; 1 week,277±135 Karmen unit
same,p-GPT activity,[4]; 1 week,81.6±25.9 Karmen unit
same,p-GOT activity,[4]; 2 weeks,96.8±2.6 Karmen unit
same,p-GPT activity,[4]; 2 weeks,28.8±3.0 Karmen unit
same,p-GOT activity,[4]; 4 weeks,64.0±5.5 Karmen unit
same,p-GPT activity,[4]; 4 weeks,40.6±3.8 Karmen unit
same,p-GOT activity,[4]; 8 weeks,91.8±7.2 Karmen unit
same,p-GPT activity,[4]; 8 weeks,32.8±6.1 Karmen unit
same,Blood Sugar (percent of 0 min value),[5]; 0 min,100%
same,Blood Sugar,[5]; 0 min,134 ± 24.8 mg/dL
same,Blood Sugar,[5]; 30 min,258 ± 22.2 mg/dL
same,Blood Sugar,[5]; 60 min,232 ± 13.0 mg/dL
same,Blood Sugar,[5]; 90 min,190 ± 23.6 mg/dL
same,Blood Sugar,[5]; 120 min,152 ± 23.4 mg/dL
same,Blood Sugar (percent of 0 min value),[5]; 30 min,192%
same,Blood Sugar (percent of 0 min value),[5]; 60 min,173%
same,Blood Sugar (percent of 0 min value),[5]; 90 min,142%
same,Blood Sugar (percent of 0 min value),[5]; 120 min,113%
same,Concentration of Ethyl alcohol in Plasma,[6]; 0 min,9±4 ppm
same,Concentration of Ethyl alcohol in Plasma,[6]; 5 min,727±84 ppm
same,Concentration of Ethyl alcohol in Plasma,[6]; 15 min,715±146 ppm
same,Concentration of Ethyl alcohol in Plasma,[6]; 30 min,430±105 ppm
same,Concentration of Ethyl alcohol in Plasma,[6]; 60 min,13±11 ppm
same,bile flow,[7]; 1 hour after treatment,110±4.2
same,excretion of biliary salt,[7]; 1 hour after treatment,105±13
same,bile flow,[7]; 2 hours after treatment,115±6.3
same,excretion of biliary salt,[7]; 2 hours after treatment,125±20
same,bile flow,[7]; 3 hours after treatment,110±7.2
same,excretion of biliary salt,[7]; 3 hours after treatment,132±26
same,bile flow,[7]; 4 hours after treatment,112±8.5
same,excretion of biliary salt,[7]; 4 hours after treatment,115±23
same,bile flow,[7]; 5 hours after treatment,92±4.7
same,excretion of biliary salt,[7]; 5 hours after treatment,81±7.2
same,Amount of total biliary salts excreted for 5 hours relative to control,[7]; versus control,1.61 times
same,Quantity of total excreted bile for 5 hours relative to control,[7]; versus control,1.15 times
